We go through 2 molecules from article PMC13422867, “An orally available PfPKG inhibitor blocks Plasmodium’s infection of the liver” (PLOS Pathogens, 2026).

Molecules are shown by their SMILES. pIC50: −log10 of the molar value. Values joined by “and” are separate entries in the source; they are usually repeats but may differ in a detail not shown here. Equal values may be shown once.

Data set [1] deals with P. cynomolgi hypnozoite. Briefly: Hypnozoite formation in primary simian hepatocytes, high-content imaging. It is filed as cell-based, Plasmodium cynomolgi. The procedure:
(§1) Liver stage antimalarial activity was evaluated using sporozoites from P. falciparum (NF54 strain) and P. cynomolgi bastianellii (B strain). P. falciparum-infected Anopheles stephensi mosquitoes were reared at WRAIR, while P. cynomolgi-infected Anopheles dirus mosquitoes were obtained from the Armed Forces Research Institute of Medical Sciences (AFRIMS), Thailand. Sporozoites were isolated by dissecting salivary glands under sterile conditions, followed by gentle mechanical disruption. Freshly isolated sporozoites were immediately used for hepatocyte infection.
(§2) Primary cryopreserved hepatocytes were selected based on host-parasite compatibility: primary simian hepatocytes (lot OQB) for P. cynomolgi and human hepatocytes (lot BGW) for P. falciparum (BioIVT Inc., Baltimore, MD, USA). Cells were thawed according to the manufacturer’s protocol and seeded into 384-well collagen-coated assay plates (Greiner Bio-One, Monroe, NC, USA) using InVitroGro CP plating medium (BioIVT). Seeding densities were optimized for uniform monolayer formation, and hepatocytes were allowed to adhere for 24–48 hours before infection. Sporozoites were added at a 1:1.1 hepatocyte-to-sporozoite ratio within 48 hours post-seeding. Automated robotic systems were used for media changes and compound additions to ensure assay consistency and minimize variability associated with manual pipetting.
(§3) Test compounds (PfPKG inhibitors) and assay drug controls (KDU-691 and tafenoquine) were solubilized in DMSO or PBS and serially diluted into 8- or 12-point, 2- or 3-fold series, achieving final assay concentrations ranging from 20 µM to 0.019 µM. Compounds were introduced using a calibrated pin tool controlled by robotic arms (V&P Scientific), ensuring a 1:1000 dilution into assay wells. Media were replenished daily with fresh drug-containing HCM. […]
(§4) Cells were fixed using 4% paraformaldehyde for 20 minutes at room temperature, followed by three PBS washes, and stored at 4°C until further processing. Parasite detection was performed using species-specific primary antibodies, with P. cynomolgi parasites labeled using a mouse monoclonal anti-Plasmodium GAPDH antibody (1.6 μg/mL, European Malaria Reagent Repository) and P. falciparum parasites detected using a rabbit polyclonal anti-PfHSP70 antibody (1:70 dilution, LS Bio, USA). […]
(§5) High-content imaging was performed using the Operetta CLS system (Revvity) and image analysis was performed with Harmony software version 4.9 (Revvity, Waltham, MA, USA). Images were acquired at 10x or 20x magnification using DAPI and TRITC fluorescence channels. Following the established protocol, parasites were classified as hypnozoites or schizonts based on fluorescence intensity (mean and maximum), morphological features (cell roundness and size), and segmentation criteria. […]

For data set [2], the system named is P. cynomolgi schizont. Briefly: Schizont formation in primary simian hepatocytes, high-content imaging. It is filed as cell-based, Plasmodium cynomolgi. The procedure:
as §1, §2, §3, §4, §5

The test system of data set [3] is primary human hepatocytes. Briefly: Cellular cytotoxicity, hepatocyte nuclear counts. It is filed as cell-based. The following applies: cellular cytotoxicity.
Description: as §2
Test compounds (PfPKG inhibitors) and assay drug controls (KDU-691 and tafenoquine) were solubilized in DMSO or PBS and serially diluted into 8- or 12-point, 2- or 3-fold series, achieving final assay concentrations ranging from 20 µM to 0.019 µM. […]
High-content imaging was performed using the Operetta CLS system (Revvity) and image analysis was performed with Harmony software version 4.9 (Revvity, Waltham, MA, USA). Images were acquired at 10x or 20x magnification using DAPI and TRITC fluorescence channels. Following the established protocol, parasites were classified as hypnozoites or schizonts based on fluorescence intensity (mean and maximum), morphological features (cell roundness and size), and segmentation criteria. […] Hepatocyte viability was determined by quantifying nuclear counts per well using Hoechst stain intensity thresholds. […] An in-house built Python-based image analysis script identified parasite objects using predefined fluorescence intensity thresholds. […] Parasite size was quantified by calculating the average object area (µm²) of validated parasite structures per well. […] Dose-response inhibition and IC50 were calculated relative to in-plate negative controls (DMSO-treated wells). […]

For data set [4], the system named is P. falciparum sporozoites. Put plainly: Sporozoite infection of primary human hepatocytes, high-content imaging. It is filed as cell-based, Plasmodium falciparum. The procedure:
Liver stage antimalarial activity was evaluated using sporozoites from P. falciparum (NF54 strain) and P. cynomolgi bastianellii (B strain). P. falciparum-infected Anopheles stephensi mosquitoes were reared at WRAIR, while P. cynomolgi-infected Anopheles dirus mosquitoes were obtained from the Armed Forces Research Institute of Medical Sciences (AFRIMS), Thailand. Sporozoites were isolated by dissecting salivary glands under sterile conditions, followed by gentle mechanical disruption. Freshly isolated sporozoites were immediately used for hepatocyte infection. […]
as §4
High-content imaging was performed using the Operetta CLS system (Revvity) and image analysis was performed with Harmony software version 4.9 (Revvity, Waltham, MA, USA). Images were acquired at 10x or 20x magnification using DAPI and TRITC fluorescence channels. […]

In data set [5] the test system is primary simian hepatocytes. Put plainly: Cellular cytotoxicity, hepatocyte nuclear counts. It is filed as cell-based.
Description: as §2
Test compounds (PfPKG inhibitors) and assay drug controls (KDU-691 and tafenoquine) were solubilized in DMSO or PBS and serially diluted into 8- or 12-point, 2- or 3-fold series, achieving final assay concentrations ranging from 20 µM to 0.019 µM. Compounds were introduced using a calibrated pin tool controlled by robotic arms (V&P Scientific), ensuring a 1:1000 dilution into assay wells. Media were replenished daily with fresh drug-containing HCM. Compounds were added 1-hour post-infection (p.i.) (day 0) and administered daily for 3 days. Cells were fixed on day 6 p.i. of P. falciparum culture and day 8 for P. cynomolgi infected culture, coinciding with liver stage schizont maturation.
High-content imaging was performed using the Operetta CLS system (Revvity) and image analysis was performed with Harmony software version 4.9 (Revvity, Waltham, MA, USA). Images were acquired at 10x or 20x magnification using DAPI and TRITC fluorescence channels. Following the established protocol, parasites were classified as hypnozoites or schizonts based on fluorescence intensity (mean and maximum), morphological features (cell roundness and size), and segmentation criteria. Hepatocyte nuclei were identified using Hoechst 33342 staining. Background signal was captured in uninfected, stained wells and subjected to the same parasite detection algorithm. Estimate erroneous parasite counts were then subtracted from infected well counts. Hepatocyte viability was determined by quantifying nuclear counts per well using Hoechst stain intensity thresholds. […] An in-house built Python-based image analysis script identified parasite objects using predefined fluorescence intensity thresholds. […] Parasite size was quantified by calculating the average object area (µm²) of validated parasite structures per well. […] Dose-response inhibition and IC50 were calculated relative to in-plate negative controls (DMSO-treated wells). […]

Data set [6] deals with P. berghei sporozoites (PbLuc-GFP). Briefly: In vivo chemoprotective efficacy against sporozoite liver infection. Set-up: species or system Plasmodium berghei in mice. As to conditions: Intravenous, 10 mg/kg x 3.
For data set [7] the test system is unchanged. The data set is described as above. Further details: species or system Plasmodium berghei in mice. The procedure:
In the first experiment, mice were administered three doses, intravenously (IV) or orally (PO), of compound (10 mg/kg) - two prior to sporozoite inoculation to block sporozoite invasion of hepatocytes and the third at 36 hpi to prevent egress of liver stages (Fig 3A). In vivo bioluminescent imaging (IVIS) of mice was utilized to detect and quantify relative parasitemia in the liver and flow cytometry was used to detect the appearance of blood stage parasites. Vehicle-treated mice were used as a negative control.
In vivo chemoprotective efficacy was evaluated using luciferase-expressing P. berghei ANKA sporozoites. […] Liver stage parasite burden was measured 42–48 h p.i. by bioluminescence imaging (IVIS Spectrum). Photon flux from the liver region was quantified using Living Image software. All animal procedures were approved by the Rutgers Institutional Animal Care and Use Committee (IACUC).

Usually pIC50 stands for −log10 of the IC50, conventionally taken in molar units. Low values mean a high IC50, high ones a low IC50. As a reminder, the CC50 is the concentration giving 50% cytotoxicity. A lower CC50 goes with greater toxicity to the cells. With `CNC(=O)c1ccc(-c2cnc3cnc(C(=O)N(C)c4ccc(Cl)cc4)cn23)cc1` [KDU-691], the results for the pIC50 in data set [1], in data set [2] and in data set [4] were 6.96, 7.38 and 7.29, respectively. The cytotoxic concentration (CC50) in data set [3] and in data set [5] was greater than 10000 nM each time.
As to `CN1CCC(c2cc(-c3ccncc3)c(-c3ccc(F)cc3)[nH]2)CC1` [TSP, reference compound], the pIC50 in data set [1] is 6.40; in data set [2] it was 6.49. The “No. of mice patent by D21/ No. of mice inoculated” value in data set [6] is recorded as 3/5. In addition, in data set [7] (3 intravenous doses, 10 mg/kg), the “mice that did not show blood stage parasites for 3 weeks pi” value is on record as 2/5. The “mice displaying liver infection at 44 hpi” value in data set [7] (IV, 10 mg/kg x 3, bioluminescent imaging) is listed as 3/5. The “Prepatent period mean ± sd” value in data set [7] (Intravenous, 10 mg/kg x 3, blood stages by flow cytometry, 10 mg/kg) was 4.3 days and 4.3 ± 1.1 days. Moreover, in data set [5], the midpoint of cytotoxicity, the CC50, lay at 8500 nM.
